Results published in patent US9375000B2, “Pesticidal arylpyrrolidines” (Bayer Intellectual Property GmbH, priority 2011, dated 2016).

Assays:
[1] = tested on: Two-Spotted Spider Mite (Tetranychus urticae); experiment: Two-spotted spider mite (Tetranychus urticae) spray test on kidney bean; type: in vivo; conditions: after 7 days
Summary of the method: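 Kidney bean plants at the two-leaf stage carried 50-100 adult mites and were sprayed one day later with compound in DMF/polyoxyethylene alkyl phenyl ether diluted in water. Ammonium salt and penetration enhancer at 1000 ppm were added if needed. Acaricidal activity (% mites killed) was scored after 7 days in a greenhouse.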

[2] = tested on: Cucurbit Leaf Beetle (Aulacophora femoralis); experiment: Cucurbit leaf beetle (Aulacophora femoralis) cucumber leaf dip test; type: in vivo; conditions: after 7 days
Summary of the method: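 Cucumber leaves dipped in compound formulated with DMF and polyoxyethylene alkyl phenyl ether, diluted in water, with ammonium salt or ammonium salt plus penetration enhancer at 1000 ppm added if necessary; dried leaves placed on sterilized soil with five second-instar larvae. Kept at 25° C; larval mortality counted after 7 days.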

[3] = tested on: adult engorged female Boophilus microplus ticks; experiment: Test against Boophilus microplus (dip); type: in vivo; conditions: dip, after 7 days
Protocol: (§1) Solvent: dimethyl sulfoxide
To produce a suitable preparation of active compound, 10 mg of active compound are dissolved in 0.5 ml solvent, and the concentrate is diluted with water to the desired concentration. Eight to ten adult engorged female Boophilus microplus ticks are placed in perforated plastic beakers and immersed in aqueous compound solution for one minute. Ticks are transferred to a filter paper in a plastic tray. Egg deposition of fertile eggs is monitored after. After 7 days mortality in % is determined. 100% means that all the ticks have been killed; 0% means that none of the ticks have been killed.

[4] = tested on: Tobacco Cutworm (Spodoptera litura) Larvae; experiment: Tobacco cutworm (Spodoptera litura) larvae, sweet potato leaf dip test; type: in vivo; conditions: dead larvae after 7 days
Protocol: (§2) Unless not mentioned otherwise, the test solutions were prepared as follows:
(§3) Solvent: 3 parts by weight Dimethylformamide
(§4) Emulsifier: 1 part by weight Polyoxyethylene alkyl phenyl ether
(§5) In order to make an appropriate formulation of an active compound, 1 part by weight of the active compound is mixed with the above mentioned amount of solvent and emulsifier and the mixture is diluted with water to a prescribed concentration. Ammonium salt or ammonium salt and penetration enhancer in a dosage of 1000 ppm are added to the desired concentration if necessary.
Leaves of sweet potato were immersed in the test solution at the appropriate concentration, and the leaves were dried in air. The leaves were then placed in a petri dish having a diameter of 9 cm, and ten Spodoptera litura at third instar larvae were released therein. The petri dishes were placed in a temperature-controlled chamber at 25° C. After 2 days and 4 days more sweet potato leaves were added. After 7 days, the number of dead larvae was counted to calculate the insecticidal activity. An insecticidal activity of 100% means that all larvae were killed, whereas an insecticidal activity of 0% means that no larva was killed. In the current test, the results of two petri dishes for each treatment were averaged.

[5] = log P by HPLC on reversed phase columns (EEC directive 79/831 Annex V.A8); type: physicochemical; conditions: for log P: HPLC on reversed phase columns
Protocol: Calibration was done with not branched alkan2-ones (with 3 to 16 carbon atoms) with known log P-values (measurement of log P values using retention times with linear interpolation between successive alkanones). lambda-maX-values were determined using UV-spectra from 200 nm to 400 nm and the peak values of the chromatographic signals.

[6] = tested on: Larvae of Spodoptera litura; experiment: Larvae of Spodoptera litura, method using artificial feeds; type: in vivo; conditions: artificial feed, after 7 days
Summary of the method: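 Compound formulated in dimethylformamide with polyoxyethylene alkyl phenyl ether emulsifier, water-diluted and poured onto artificial diet. Five 3rd-instar Spodoptera litura larvae per cup, held at 25° C and 50-60% humidity. Mortality after 7 days expressed as pesticidal ratio.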

Thrips palmi = Thrips palmi spray test (THRIPL); type: in vivo; conditions: after 6 days
Summary of the method: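 Cucumber seedlings sprayed with compound formulated in DMF/polyoxyethylene alkyl phenyl ether and diluted in water, ammonium salt ± penetration enhancer at 1000 ppm added if needed. About 100 T. palmi eggs attached, plants held caged at 100% humidity, 23 °C. Percent activity scored from feeding damage after 6 days, 100 = no damage, 0 = as untreated.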

[7] = tested on: green peach aphids (Myzus persicae); experiment: Myzus persicae spray test (MYZUPE); type: in vivo; conditions: after 6 days
Protocol: as §2, §3, §4, §5
1 day before treatment, green peach aphids (Myzus persicae) are inoculated onto the testing plants, about 50 heads per leaf, 100 for 1 pot. A paper label is placed on each pot. Solutions are sprayed directly onto both insects and plants. After drying, the pots are placed in the greenhouse at 20° C.-25° C. After 6 days mortality in % is determined. An insecticidal activity of 100% means that all aphids were killed, whereas an insecticidal activity of 0% means that no aphid was killed.

Ctenocephalides felis = experiment: Test against Ctenocephalides felis (CTECFE), blood feeding; type: in vivo; conditions: application rate 100 ppm in cattle blood; after 2 days
Protocol: as §1
To produce a suitable preparation of active compound, 10 mg of active compound are dissolved in 0.5 ml solvent, and the concentrate is diluted with cattle blood to the desired concentration. Approximately 20 adult unfed (Ctenocepahlides felis) are placed in flea chambers. The blood chamber, sealed with parafilm on the bottom, are filled with cattle blood supplied with compound solution and placed on top of the flea chamber, so that the fleas are able to suck the blood. The blood chamber is heated to 37° C. whereas the flea chamber is kept at room temperature.
After 2 days mortality in % is determined. 100% means that all the fleas have been killed; 0% means that none of the fleas have been killed.

Musca domestica = experiment: Test against Musca domestica; type: in vivo; conditions: application rate 100 ppm; after 2 days
Protocol: as §1
To produce a suitable preparation of active compound, 10 mg of active compound are dissolved in 0.5 ml solvent, and the concentrate is diluted with water to the desired concentration. Prior to the assay, a piece of kitchen sponge is soaked with a mixture of sugar and compound solution and placed into a container. 10 adults (Musca domestica) are placed into the container and closed with a perforated lid. After 2 days mortality in % is determined. 100% means that all the flies have been killed; 0% means that none of the flies have been killed.

[8] = active compound concentration 4 ppm
[9] = active compound concentration 20 ppm
[10] = active compound concentration 100 ppm

SMILES | acaricidal activity [1, 8] [%] | insecticidal activity [2, 9] [%] | insecticidal activity [4, 8] [%] | insecticidal activity [2, 8] [%] | insecticidal activity (pesticidal ratio) [6, 8] [%] | acaricidal activity [1, 9] [%] | insecticidal activity (pesticidal ratio) [6, 9] [%] | insecticidal activity (by feeding damage degree) (Thrips palmi; [9]) [%] | activity (mortality) (Musca domestica) [%] | further results
CC(=O)NCc1ccc(N2CCC(c3cc(Cl)c(F)c(Cl)c3F)(C(F)(F)F)C2O)cc1C(F)(F)F (stereo not shown) [A1-282] | 100 | 100 | 100 |  |  |  |  |  |  | activity (mortality) ([3]; application rate 100 ppm): 95%
CN(C)C(=O)NCc1ccc(N2CCC(c3cc(Cl)cc(Cl)c3)(C(F)(F)F)C2O)cc1C(F)(F)F (stereo not shown) [A1-368] |  |  |  |  |  |  |  |  |  | log P [5]: 3.81; acaricidal activity [1, 10]: 100%
O=C(NCc1ccc(N2CCC(c3cc(C(F)(F)F)cc(C(F)(F)F)c3)(C(F)(F)F)C2O)nc1Cl)C1CC1 (stereo not shown) [A3-148] |  |  |  | 100 | 100 |  |  |  |  | logP [5]: 3.96; insecticidal activity (by feeding damage degree) (Thrips palmi; [10]): 90%
O=C(CC(F)(F)F)NCc1ccc(N2CCC(c3cc(Cl)c(Cl)c(Cl)c3)(C(F)(F)F)C2O)cc1Cl (stereo not shown) [A1-18] | 100 |  |  | 100 | 100 |  |  |  |  | insecticidal activity (mortality) [7, 10]: 100%; insecticidal activity (by feeding damage degree) (Thrips palmi; [10]): 90%
CCC(=O)NCc1cnc(N2CCC(c3cc(Cl)c(Cl)c(Cl)c3)(C(F)(F)F)C2O)nc1C(F)(F)F (stereo not shown) [A4-13] |  |  |  |  |  | 100 | 100 | 98 |  | insecticidal activity (mortality) [7, 10]: 90%; insecticidal activity (by feeding damage degree) (Thrips palmi; [10]): 98%
O=C(NCc1ccc(N2CCC(c3cc(Cl)c(Cl)c(Cl)c3)(C(F)(F)F)C2O)cc1Cl)C1CC1 (stereo not shown) [A1-16] | 100 |  |  | 100 | 100 |  |  |  | 80 | insecticidal activity (mortality) [7, 10]: 100%; activity (mortality) (Ctenocephalides felis): 90%; insecticidal activity (by feeding damage degree) (Thrips palmi; [10]): 98%
CCNC(=O)NCc1ccc(N2CCC(c3cc(Cl)cc(Cl)c3)(C(F)(F)F)C2O)cc1C(F)(F)F (stereo not shown) [A1-369] |  |  | 100 |  |  |  |  |  |  | log P [5]: 3.73; acaricidal activity [1, 10]: 100%
O=C(NCc1ccc(N2CCC(c3cc(Br)cc(Br)c3)(C(F)(F)F)C2O)cc1C(F)(F)F)C1CC1 (stereo not shown) [A1-253] | 100 | 100 |  | 100 | 100 | 100 | 100 | 90 | 90 | 
CS(=O)(=O)CC(=O)NCc1ccc(N2CCC(c3cc(C(F)(F)F)cc(C(F)(F)F)c3)(C(F)(F)F)C2O)nc1Br (mixture of isomers) [A3-165] | 90 | 100 |  | 100 | 100 |  | 100 |  |  | activity (mortality) ([3]; application rate 100 ppm): 90%
O=C(NCc1cc(F)c(N2CCC(c3cc(C(F)(F)F)cc(C(F)(F)F)c3)(C(F)(F)F)C2O)nc1Cl)C1CC1 (stereo not shown) [A3-381] |  | 100 |  | 100 |  |  | 100 |  |  | insecticidal activity (mortality) [7, 10]: 98%; activity (mortality) ([3]; application rate 100 ppm): 80%; insecticidal activity (by feeding damage degree) (Thrips palmi; [10]): 98%
O=C(NCc1ccc(N2CCC(c3cc(F)cc(Cl)c3)(C(F)(F)F)C2O)nc1C(F)(F)F)C1CC1 (mixture of isomers) [A3-170] |  | 100 | 100 |  |  | 100 |  |  | 90 | 
CCC(=O)NCc1ccc(N2CCC(c3cc(C(F)(F)F)cc(C(F)(F)F)c3)(C(F)(F)F)C2O)cc1C(F)(F)F (mixture of isomers) [A1-57] | 100 |  |  | 100 | 100 |  |  | 100 |  | activity (mortality) ([3]; application rate 100 ppm): 90%
CCC(=O)NCc1ccc(N2CCC(c3cc(Cl)c(Cl)c(Cl)c3)(C(F)(F)F)C2O)nc1Br (stereo not shown) [A3-112] |  | 100 |  |  |  | 100 | 100 |  | 90 | 
CCC(=O)NCc1cnc(N2CCC(c3cc(Cl)c(F)c(Cl)c3)(C(F)(F)F)C2O)nc1C(F)(F)F (stereo not shown) [A4-101] | 100 | 100 | 100 |  |  |  |  | 98 |  | insecticidal activity (mortality) [7, 9]: 100%
C[S+]([O-])CC(=O)NCc1ccc(N2CCC(c3cc(C(F)(F)F)cc(C(F)(F)F)c3)(C(F)(F)F)C2O)cc1Cl (stereo not shown) [A1-32] |  | 100 |  |  |  | 100 | 100 |  |  | activity (mortality) ([3]; application rate 20 ppm): 95%
O=C(NCc1ccc(N2CCC(c3cc(Cl)c(Cl)c(Cl)c3)(C(F)(F)F)C2O)nc1Cl)C1CC1 (stereo not shown) [A3-104] | 100 | 100 | 100 |  |  |  |  | 98 |  | insecticidal activity (mortality) [7, 9]: 100%
O=C(NCc1ccc(N2CCC(c3cc(Cl)c(F)c(Cl)c3F)(C(F)(F)F)C2O)nc1C(F)(F)F)C1CC1 (mixture of isomers) [A3-214] | 100 | 100 |  | 100 | 100 | 100 | 100 |  |  | insecticidal activity (mortality) [7, 9]: 100%; insecticidal activity (by feeding damage degree) (Thrips palmi; [8]): 90%
O=C(NCc1ccc(N2CCC(c3cc(Cl)c(Cl)c(Cl)c3)(C(F)(F)F)C2O)cc1I)C1CC1 (mixture of isomers) [A1-176] | 100 | 100 |  |  | 100 | 100 | 100 | 90 | 80 | 
O=C(NCc1ccc(N2CC(c3cc(C(F)(F)F)cc(C(F)(F)F)c3)(C(F)(F)F)CC2=O)nc1C(F)(F)F)C1CC1 (stereo not shown) [C3-27] |  |  |  |  |  |  | 100 |  | 90 | insecticidal activity [4, 9]: 100%
O=C(NCc1ccc(N2CCC(c3cc(Cl)cc(Cl)c3)(C(F)(F)F)C2O)cc1Br)C1CC1 (mixture of isomers) [A1-110] | 100 | 100 | 100 |  |  |  |  | 98 |  | activity (mortality) ([3]; application rate 100 ppm): 90%
